Laboratory results taken from the supplement of paper PMC13380429.

Tests used:
[1] = system: A549-ACE2; assay: drug-induced phospholipidosis relative to tamoxifen; higher = more phospholipidosis
[2] = system: A549-ACE2; assay: phospholipidosis EC50; higher = less potent phospholipidosis inducer
[3] = system: A549-ACE2 infected with SARS-CoV-2; assay: SARS-CoV-2 infection rate relative to DMSO; higher = more infection; settings: 24 h
[4] = system: Calu-3; assay: drug sensitivity score (DSS) for viability; higher = more toxic; extreme values may be limits of the assay; settings: 72 h
[5] = system: Vero E6; assay: as above; settings: 72 h
[6] = system: U2OS; assay: as above; settings: 72 h
[7] = system: Caco-2; assay: as above; settings: 72 h
[8] = system: HepG2; assay: as above; settings: 72 h
[9] = system: A549-ACE2 infected with SARS-CoV-2; assay: cell count relative to DMSO; higher = less toxic; settings: 24 h
[10] = system: Calu-3; assay: cell viability relative to DMSO; higher = less toxic; settings: 72 h
[11] = system: Vero E6; assay: as above; settings: 72 h
[12] = system: U2OS; assay: as above; settings: 72 h
[13] = system: Caco-2; assay: as above; settings: 72 h
[14] = system: HepG2; assay: as above; settings: 72 h
[15] = system: A549-ACE2 infected with SARS-CoV-2; assay: morphology score (similarity to uninfected cells); higher = more like uninfected cells; settings: 24 h
[16] = system: Calu-3; assay: relative viability EC50 (midpoint between 100% and the lowest measured viability); higher = less toxic; settings: 72 h
[17] = system: Vero E6; assay: as above; settings: 72 h
[18] = system: Caco-2; assay: as above; settings: 72 h
[19] = system: HepG2; assay: as above; settings: 72 h
[20] = system: U2OS; assay: as above; settings: 72 h

COc1ccc(NC(=O)c2ccc(-c3ccc(-c4noc(C)n4)cc3C)cc2)cc1N1CCN(C)CC1
drug-induced phospholipidosis [%], [1]
Settings	0.3 µM	0.833333 µM	3.33333 µM	6.66667 µM	10 µM	30 µM
24 h	2.12	35	61.8	56.7	35.2	28.3
48 h	4.59	17.3	79.1	76.8	56.3	–
72 h	4.03	12.8	79.8	80.8	–	–

Settings	SARS-CoV-2 infection rate [%]	cell count [%]	cell viability [%]	morphology score	phospholipidosis EC50 [nM]
[2], 24 h	–	–	–	–	719
[2], 48 h	–	–	–	–	984
[2], 72 h	–	–	–	–	1270
[3], 0.1 µM	106	–	–	–	–
[3], 0.3 µM	99	–	–	–	–
[3], 1 µM	85	–	–	–	–
[3], 3 µM	31	–	–	–	–
[9], 0.1 µM	–	97	–	–	–
[9], 0.3 µM	–	104	–	–	–
[9], 1 µM	–	109	–	–	–
[9], 3 µM	–	117	–	–	–
[10], 1 nM	–	–	110	–	–
[10], 10 nM	–	–	109	–	–
[10], 100 nM	–	–	99.2	–	–
[10], 1000 nM	–	–	102	–	–
[10], 10000 nM	–	–	7.9	–	–
[11], 1 nM	–	–	106	–	–
[11], 10 nM	–	–	101	–	–
[11], 100 nM	–	–	105	–	–
[11], 1000 nM	–	–	96.6	–	–
[11], 10000 nM	–	–	31.6	–	–
[12], 1 nM	–	–	103	–	–
[12], 10 nM	–	–	102	–	–
[12], 100 nM	–	–	106	–	–
[12], 1000 nM	–	–	99.3	–	–
[12], 10000 nM	–	–	54.2	–	–
[13], 1 nM	–	–	105	–	–
[13], 10 nM	–	–	92.5	–	–
[13], 100 nM	–	–	98.8	–	–
[13], 1000 nM	–	–	94.4	–	–
[13], 10000 nM	–	–	42.8	–	–
[14], 1 nM	–	–	97.5	–	–
[14], 10 nM	–	–	109	–	–
[14], 100 nM	–	–	98.9	–	–
[14], 1000 nM	–	–	103	–	–
[14], 10000 nM	–	–	19.1	–	–
[15], 0.1 µM	–	–	–	-0.16	–
[15], 0.3 µM	–	–	–	0.15	–
[15], 1 µM	–	–	–	0.46	–
[15], 3 µM	–	–	–	0.78	–

Settings	drug sensitivity score	relative viability EC50 [nM]
[4]	5	–
[5]	4.2	–
[6]	2.5	–
[7]	4	–
[8]	4.2	–
[16]	–	3270
[17]	–	2790
[18]	–	2360
[19]	–	3380

C[C@@H](Oc1cc(-n2cnc3ccc(CN4CCN(C)CC4)cc32)sc1C(N)=O)c1ccccc1C(F)(F)F
[1], 24 h
Settings	drug-induced phospholipidosis [%]
0.3 µM	14.3
0.833333 µM	26.9
3.33333 µM	156
6.66667 µM	198
10 µM	260
30 µM	246

Settings	SARS-CoV-2 infection rate [%]	cell count [%]	cell viability [%]	morphology score	phospholipidosis EC50 [nM]
[2], 24 h	–	–	–	–	2900
[3], 0.1 µM	104	–	–	–	–
[3], 0.3 µM	101	–	–	–	–
[3], 1 µM	103	–	–	–	–
[3], 3 µM	36	–	–	–	–
[9], 0.1 µM	–	60	–	–	–
[9], 0.3 µM	–	55	–	–	–
[9], 1 µM	–	61	–	–	–
[9], 3 µM	–	62	–	–	–
[10], 1 nM	–	–	105	–	–
[10], 10 nM	–	–	86.9	–	–
[10], 100 nM	–	–	84.5	–	–
[10], 1000 nM	–	–	84.8	–	–
[10], 10000 nM	–	–	36.1	–	–
[11], 1 nM	–	–	101	–	–
[11], 10 nM	–	–	104	–	–
[11], 100 nM	–	–	77.2	–	–
[11], 1000 nM	–	–	64.6	–	–
[11], 10000 nM	–	–	36	–	–
[12], 1 nM	–	–	104	–	–
[12], 10 nM	–	–	101	–	–
[12], 100 nM	–	–	67.9	–	–
[12], 1000 nM	–	–	51.8	–	–
[12], 10000 nM	–	–	48.8	–	–
[13], 1 nM	–	–	96.8	–	–
[13], 10 nM	–	–	95.2	–	–
[13], 100 nM	–	–	67.2	–	–
[13], 1000 nM	–	–	62.7	–	–
[13], 10000 nM	–	–	68.5	–	–
[14], 1 nM	–	–	98.2	–	–
[14], 10 nM	–	–	101	–	–
[14], 100 nM	–	–	23.9	–	–
[14], 1000 nM	–	–	19.4	–	–
[14], 10000 nM	–	–	8	–	–
[15], 0.1 µM	–	–	–	0.01	–
[15], 0.3 µM	–	–	–	0.06	–
[15], 1 µM	–	–	–	0.19	–
[15], 3 µM	–	–	–	0.65	–

Settings	drug sensitivity score	relative viability EC50 [nM]
[4]	5.5	–
[5]	9.3	–
[6]	13.3	–
[7]	11.1	–
[8]	25.5	–
[16]	–	1730
[17]	–	444
[19]	–	54
[20]	–	80.4

O=C1NC(=O)C(c2cnc3ccccn23)=C1c1cn2c3c(cc(F)cc13)CN(C(=O)N1CCCCC1)CC2
[1], 24 h
Settings	drug-induced phospholipidosis [%]
0.3 µM	-5.51
0.833333 µM	-3
3.33333 µM	-2.04
6.66667 µM	-0.59
10 µM	12.5

Settings	SARS-CoV-2 infection rate, [3] [%]	cell count, [9] [%]	cell viability, [10] [%]	cell viability, [11] [%]	cell viability, [12] [%]	cell viability, [13] [%]	cell viability, [14] [%]	morphology score, [15]
1 nM	–	–	101	105	108	104	121	–
10 nM	–	–	111	105	112	109	113	–
100 nM	–	–	80	95.9	99.5	87.3	109	–
0.3 µM	114	79	–	–	–	–	–	-0.23
1000 nM	–	–	68.1	66.1	94.2	70.5	94	–
3 µM	108	75	–	–	–	–	–	-0.14
10 µM	92	72	–	–	–	–	–	-0.05
10000 nM	–	–	61	77.9	80.3	47.3	56.7	–
30 µM	49	50	–	–	–	–	–	0.41

Settings	drug sensitivity score	relative viability EC50 [nM]
[4]	9.5	–
[5]	6.6	–
[6]	1.3	–
[7]	6.7	–
[8]	3.2	–
[18]	–	624
[20]	–	> 10000

CN1CCCCC1Cn1cc(C(=O)c2cc([N+](=O)[O-])ccc2I)c2ccccc21 (stereo unspecified) [AM-1241]
drug-induced phospholipidosis [%], [1]
Settings	0.3 µM	0.833333 µM	3.33333 µM	6.66667 µM	10 µM	30 µM
24 h	-1.12	0.49	3.57	9.5	15.9	81.8
48 h	-0.88	-2.35	0.06	1.85	8.12	104
72 h	-1.12	-4.89	-3.06	1.99	5.24	111

Settings	SARS-CoV-2 infection rate, [3] [%]	cell count, [9] [%]	cell viability, [10] [%]	cell viability, [11] [%]	cell viability, [12] [%]	cell viability, [13] [%]	cell viability, [14] [%]	morphology score, [15]
1 nM	–	–	103	95.4	94	92.7	89.1	–
10 nM	–	–	103	99.2	97.6	92.8	101	–
100 nM	–	–	99.3	96.5	91.7	100	107	–
0.3 µM	107	104	–	–	–	–	–	0.18
1000 nM	–	–	94.4	97.1	98.1	94.4	102	–
3 µM	85	109	–	–	–	–	–	0.36
10 µM	63	118	–	–	–	–	–	0.87
10000 nM	–	–	104	106	99	97.8	102	–
30 µM	33	115	–	–	–	–	–	0.66

Settings	drug sensitivity score	relative viability EC50 [nM]
[4]	0	–
[5]	0	–
[6]	0	–
[7]	0	–
[8]	0	–
[16]	–	> 10000
[17]	–	> 10000
[18]	–	> 10000
[19]	–	> 10000
[20]	–	> 10000
